ChEMBL document CHEMBL1201862, “PubChem BioAssay data set” (2004)
Blank lines part the entries; values can stand above or below the compound they belong to. Activity calls are given as the source filed them.

Legend:
[1] = biological target: T1, Mannose-6-phosphate isomerase (Homo sapiens, UniProt P34949); test: inhibitors of human PMI, primary screen, biochemical, fluorescence intensity, coupled assay (AID 1209)
T1 sequence (P34949 whole entry): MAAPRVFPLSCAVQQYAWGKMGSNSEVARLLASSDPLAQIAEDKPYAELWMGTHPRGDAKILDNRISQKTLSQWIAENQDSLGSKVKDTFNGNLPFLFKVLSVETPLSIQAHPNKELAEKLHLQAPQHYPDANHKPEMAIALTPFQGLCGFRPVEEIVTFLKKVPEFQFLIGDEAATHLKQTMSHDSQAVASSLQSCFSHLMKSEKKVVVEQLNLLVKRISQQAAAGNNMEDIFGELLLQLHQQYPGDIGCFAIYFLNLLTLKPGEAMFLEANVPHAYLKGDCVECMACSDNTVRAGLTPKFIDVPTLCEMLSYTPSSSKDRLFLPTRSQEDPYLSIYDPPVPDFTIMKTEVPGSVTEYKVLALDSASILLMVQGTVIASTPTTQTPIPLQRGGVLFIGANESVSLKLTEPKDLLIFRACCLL

[2] = inhibitors of intracellular T. cruzi replication, confirmation, NIH3T3 host cells, beta-gal luminescence (AID 2044); format: functional, cell-based;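 also: intracellular parasites grown in NIH/3T3 mouse fibroblasts as host cells; luminescent beta-galactosidase reporter signal from transgenic T. cruzi replicating inside host cells; inhibitors lower the luminescence signal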
[3] = cytotoxicity toward NIH3T3 fibroblasts, dose response, counter-screen, cell-based, ATP luminescence, mouse fibroblasts (AID 2010); format: functional;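 also: cells exposed to compound for about 90 hours before reading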
[4] = biological target: T1, Mannose-6-phosphate isomerase; test: PMI enzyme inhibitors, confirmation, biochemical, fluorescence intensity (AID 1535)
Phosphomannomutase 2 = Phosphomannomutase 2 (Homo sapiens, UniProt O15305); test: Counter screen SAR assay for PMM2 inhibitors via a fluorescence intensity assay. [Related pubchem assays (depositor defined):AID1545, AID1574]
[5] = biological target: Eukaryotic translation initiation factor 4E (Mus musculus, UniProt P63073); test: eIF4E–eIF4G protein interaction inhibitors, dose response, biochemical, TR-FRET (AID 855); format: functional;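 also: potency for disrupting eIF4E binding to eIF4GI seen as loss of FRET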
[6] = biological target: DNA dC->dU-editing enzyme APOBEC-3G (Homo sapiens, UniProt Q9HC16); test: Dose Response confirmation of small molecule APOBEC3G DNA Deaminase Inhibitors via a fluorescence-based single-stranded DNA deaminase assay. [Related pubchem assays (depositor defined):AID493012, AID493028]; format: functional
HeLa = test: HeLa cell cytotoxicity, dose response, cytotoxicity control, 24 h, cherry-picked samples (AID 504726); format: functional, cell-based; conditions: Homo sapiens;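 also: potency for cytotoxicity as loss of luminescence signal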
[7] = cytotoxicity in BJeHLT fibroblasts, dose response, counter-screen for Ras selective lethality project, BJeHLT cells, dry powder (AID 493052); format: functional, cell-based; conditions: Homo sapiens
[8] = viability loss in HRASV12 DRD fibroblasts, dose response, cell-based, DRD BJ fibroblasts, dry powder (AID 493049); format: functional
[9] = viability loss in BJeLR (HRASV12) cells, primary screen, Ras selective lethality project, cell-based, Alamar Blue, dry powder (AID 493045); format: functional
[10] = cytotoxicity in BJeH fibroblasts, dose response, counter-screen for Ras selective lethality project, BJeH cells, dry powder (AID 493054); format: functional, cell-based
[11] = biological target: Melanin-concentrating hormone receptor 1 (Homo sapiens, UniProt Q99705); test: Late-stage fluorescence-based counterscreen for antagonists of the G-protein coupled receptor 7 (GPR7): cell-based dose response assay to identify antagonists of the melanin-concentrating hormone receptor 1 (MCHR1). [Related pubchem assays (depositor defined):AID1861, AID1880, AID1952, AID2148, AID2251, AID2257, AID485339]; format: functional;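 also: stimulated with 30 nM MCH peptide agonist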
[12] = biological target: Envelope glycoprotein gp160 (Human immunodeficiency virus 1, UniProt Q6QLK5); test: inhibitors of HIV fusion peptide binding, primary screen, biochemical, uHTS, fluorescence dequenching (AID 1986)
[13] = system: Streptococcus sp. 'group A'; test: growth inhibition of control SK(-) GAS strain, dose response, counter-screen for streptokinase expression inhibitor project, luminescence, kanamycin, BacTiterGlo, confirmation (AID 1900); format: functional, organism-based
[14] = HIV-1 Env-mediated cell fusion inhibitors, dose response, CCR5-tropic Env (AID 2279); format: functional
Streptococcus = test: Group A Streptococcus viability loss, dose response, counter-screen for streptokinase expression inhibitor project, luminescence, BacTiterGlo (AID 1915); format: functional, organism-based;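 also: potency for reduction of bacterial viability or growth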
[15] = Concentration-dependent survival of SW480 colon cancer line, luminescence detection with CellTiter-Glo, half-maximal inhibitory concentration (AID 1117338); format: functional
[16] = RKO cell viability reduction, dose response, CellTiter-Glo luminescence (AID 1117322); format: functional
[17] = cytotoxicity toward HCT116 cells – cell-based, CellTiter-Glo luminescence, IC50, dose response (AID 1117332); format: functional; conditions: HCT-116
[18] = SNU-C1 cell viability reduction, dose response, CellTiter-Glo luminescence (AID 1117323); format: functional, cell-based
[19] = half-maximal inhibitory concentration for glucagon-like peptide-1 release, STC-1 cell line, dose-response (AID 1117345); format: functional, cell-based
[20] = cytotoxicity toward Colo320 cells – cell-based, CellTiter-Glo luminescence, IC50, dose response (AID 1117334); format: functional; conditions: COLO 320
[21] = cytotoxicity toward HT-29 cells – cell-based, CellTiter-Glo luminescence, IC50, dose response (AID 1117330); format: functional
[22] = CellTiter-Glo luminescent dose response of DLD-1 viability loss (AID 1117352); format: functional
[23] = Glucagon-like peptide 1 release potency, NCI-H716 cell line, dose-response, half-maximal inhibitory concentration (AID 1117344); format: functional, cell-based

Melanin-concentrating hormone receptor 1, sequence (Q99705 whole entry, the tested form may be a part): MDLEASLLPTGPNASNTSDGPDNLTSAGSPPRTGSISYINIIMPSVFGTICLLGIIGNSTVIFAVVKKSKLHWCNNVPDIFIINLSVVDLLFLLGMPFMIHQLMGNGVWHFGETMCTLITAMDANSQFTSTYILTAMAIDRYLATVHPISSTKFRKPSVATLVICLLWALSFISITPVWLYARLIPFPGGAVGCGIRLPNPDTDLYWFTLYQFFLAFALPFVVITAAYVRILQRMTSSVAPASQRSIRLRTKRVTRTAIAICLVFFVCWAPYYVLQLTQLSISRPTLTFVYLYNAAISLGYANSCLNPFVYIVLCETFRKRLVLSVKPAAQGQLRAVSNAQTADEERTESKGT
Phosphomannomutase 2, sequence (O15305 whole entry): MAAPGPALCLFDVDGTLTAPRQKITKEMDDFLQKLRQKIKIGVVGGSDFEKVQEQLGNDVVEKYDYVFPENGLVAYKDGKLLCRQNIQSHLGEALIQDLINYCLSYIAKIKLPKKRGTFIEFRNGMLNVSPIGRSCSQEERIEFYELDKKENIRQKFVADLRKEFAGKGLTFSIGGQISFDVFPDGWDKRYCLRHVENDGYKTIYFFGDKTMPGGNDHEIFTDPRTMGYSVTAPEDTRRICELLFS
Eukaryotic translation initiation factor 4E, sequence (P63073 whole entry): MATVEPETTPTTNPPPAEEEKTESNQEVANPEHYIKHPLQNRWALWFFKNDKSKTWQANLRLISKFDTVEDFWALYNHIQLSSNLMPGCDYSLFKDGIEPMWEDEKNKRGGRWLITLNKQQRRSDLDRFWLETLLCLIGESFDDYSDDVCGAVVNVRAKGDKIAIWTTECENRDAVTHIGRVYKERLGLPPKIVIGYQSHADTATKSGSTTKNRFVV
Envelope glycoprotein gp160, sequence (Q6QLK5 whole entry, the tested form may be a part): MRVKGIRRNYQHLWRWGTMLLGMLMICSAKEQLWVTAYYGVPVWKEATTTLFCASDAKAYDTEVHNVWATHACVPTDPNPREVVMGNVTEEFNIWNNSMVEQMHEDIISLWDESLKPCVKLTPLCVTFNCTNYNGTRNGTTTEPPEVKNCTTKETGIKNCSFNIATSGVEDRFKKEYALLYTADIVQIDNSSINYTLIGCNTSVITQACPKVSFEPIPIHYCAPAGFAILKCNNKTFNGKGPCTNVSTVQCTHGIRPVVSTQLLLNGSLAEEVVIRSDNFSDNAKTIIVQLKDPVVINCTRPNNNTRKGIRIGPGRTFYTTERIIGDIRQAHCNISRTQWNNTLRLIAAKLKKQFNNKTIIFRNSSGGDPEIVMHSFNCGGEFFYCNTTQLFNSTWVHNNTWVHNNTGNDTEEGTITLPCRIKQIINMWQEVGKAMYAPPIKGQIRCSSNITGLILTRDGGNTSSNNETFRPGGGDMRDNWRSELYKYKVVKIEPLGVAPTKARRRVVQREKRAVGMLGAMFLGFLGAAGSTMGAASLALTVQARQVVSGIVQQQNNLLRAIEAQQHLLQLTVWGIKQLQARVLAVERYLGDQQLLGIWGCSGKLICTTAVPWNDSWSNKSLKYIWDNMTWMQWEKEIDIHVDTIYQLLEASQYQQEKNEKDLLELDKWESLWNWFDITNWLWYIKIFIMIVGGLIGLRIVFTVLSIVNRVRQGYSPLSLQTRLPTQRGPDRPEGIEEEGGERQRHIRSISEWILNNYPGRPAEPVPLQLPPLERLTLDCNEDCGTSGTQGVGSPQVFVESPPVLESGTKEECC
DNA dC->dU-editing enzyme APOBEC-3G, sequence (Q9HC16 whole entry): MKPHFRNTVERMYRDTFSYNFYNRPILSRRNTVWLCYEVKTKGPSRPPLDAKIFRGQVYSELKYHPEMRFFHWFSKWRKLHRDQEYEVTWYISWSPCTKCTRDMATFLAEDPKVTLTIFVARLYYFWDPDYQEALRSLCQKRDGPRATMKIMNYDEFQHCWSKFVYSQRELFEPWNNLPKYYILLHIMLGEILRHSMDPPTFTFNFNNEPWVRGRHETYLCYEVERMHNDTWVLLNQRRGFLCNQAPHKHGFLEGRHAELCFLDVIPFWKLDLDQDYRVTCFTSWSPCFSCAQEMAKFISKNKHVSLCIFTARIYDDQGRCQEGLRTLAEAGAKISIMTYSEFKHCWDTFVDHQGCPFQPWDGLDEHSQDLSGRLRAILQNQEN

SMILES: COc1ccc2nc(N=C(S)N(C)C)sc2c1
IC50 [1]: 8330 nM (active)
EC50 [2]: 2030 nM (active)
EC50 [3]: > 60000 nM (inconclusive)
IC50 [4]: 46100 nM (active)
IC50 (Phosphomannomutase 2): > 100000 nM (inactive)
IC50 [5]: > 64000 nM (inactive)
IC50 [6]: 40800 nM (active)

SMILES: CC(=O)N/C(=C/c1ccc(OS(=O)(=O)c2ccc(C)cc2)cc1)C(=O)Nc1ccc(C(=O)O)cc1
AC50 (HeLa): 132000 nM (active)

SMILES: COc1ccc(N(C(=O)CCl)C(C(=O)NCS(=O)(=O)c2ccc(C)cc2)c2cccs2)cc1Cl (stereo unspecified)
AC50 [7]: 208 nM (active)
AC50 [8]: 83 nM (active)
AC50 [9]: 89 nM (active)
AC50 [10]: 347 nM (active)

IC50 [11]: 6300 nM (active)
SMILES: COc1ccc(Oc2c(Cl)cnn(Cc3ccc(C)cc3)c2=O)cc1

SMILES: O=C(Nc1ccc(Oc2ccc(Cl)cc2)c(Cl)c1)c1cc(I)cc(I)c1O [RAFOXANIDE]
IC50 [12]: 19700 nM (active)
EC50 [13]: 80 nM (active)
IC50 [14]: 7360 nM (active)
EC50 (Streptococcus): 137 nM (active)
IC50 [15]: 10.8 nM (active)
IC50 [16]: 30.3 nM (active)
IC50 [17]: 16.9 nM (active)
IC50 [18]: 14.3 nM (active)
IC50 [19]: 1300 nM (active)
IC50 [20]: 54 nM (active)
IC50 [21]: 9.5 nM (active)
IC50 [22]: 8.4 nM (active)
IC50 [23]: > 40000 nM (inactive)
